Data on one compound can be found in patent EP0808626A1, “Use of acetyl-L-carnitine for the treatment of presenile Alzheimer's disease” (Sigma-Tau Industrie Farmaceutiche Riunite S.p.A., priority 1996, dated 1997).

For one data set, the system named is early-onset AD patients. As to the kind of experiment: Double-blind, randomized, placebo-controlled trials with cognitive and functional clinical rating scales. The class given is in vivo. The note with it: "efficacy" population. Here is the method: For the purposes of assessing the clinical efficacy of acetyl L-carnitine in early-onset AD patients. 8 different parallel-group, double-blind, randomized, placebo-controlled trials in which acetyl L-carnitine was administered chronically by mouth to subjects suffering from early-onset (before age 65) or late-onset (after age 65) Alzheimer's disease were pooled and assessed as a whole.
Acetyl L-carnitine or placebo were administered at doses ranging from 2 to 3 g/day in the different studies. All patients recruited into these trials had diagnoses of probable Alzheimer's disease according to the criteria laid down by the DSM-III-R and the NINCDS-ADRDA; for recruitment patients had to have a Hachinski Ischemic Score of 4 points or less and no CT or NMR findings indicative of cerebral lesions other than those typical of Alzheimer's disease.
A total of 834 patients were recruited into the 8 trials considered. Of these, 140 (16.8%) were suffering from early-onset AD (before 65 years of age according to the DSM-IV definition). The criterion adopted to identity these patients as early-onset was their actual age at the time of recruitment into the study.
In the 8 trials considered, the progression of Alzheimer's disease was assessed on the basis of cognitive clinical rating scales (cognitive section of the Alzheimer's Disease Assessment Scale [ADAS-Cog]; MMSE - Mini Mental State Examination; BIMC - Blessed Information Memory Concentration) and functional or global clinical scales (CDR - Clinical Dementia Rating Scale; BDS - Blessed Dementia Scale; CGI-S and -C - Clinical Global Impression of Severity and Change) according to the scientific criteria indicated and approved by the various international regulatory authorities.

The conditions of data set [1]: stated to justify doses larger than 1 to 4 g/day; cited from earlier work.
Where [2] appears, read: study ST-901, Functional, oral 3 g/day, 12 months.
The mark [3] stands for this setting: study ST-88102, Cognitive, oral 2-3 g/day, 44 weeks.
Where [4] appears, read: study ST-88102, Functional, oral 2-3 g/day, 44 weeks.
Where [5] appears, read: the 5 studies of 6 months, Functional, oral.

In the case of `CC(=O)O[C@H](CC(=O)[O-])C[N+](C)(C)C` [Acetyl L-carnitine, acetyl L-carnitine], the “BIMC, mean change in final value at 6-12 months compared to baseline” value with early-onset AD patients (study DRN2-006, Cognitive, oral 2 g/day, 12 months) was -3.5. For the same compound, the “BDS, mean change in final value at 6-12 months compared to baseline” value in the data set on early-onset AD patients (study DRN2-006, Functional, oral 2 g/day, 12 months) turned out to be 0.4; with early-onset AD patients (setting [4]) it was 1.2. In the data set with early-onset AD patients (setting [2]), the “CDR, mean change in final value at 6-12 months compared to baseline” value amounted to 1.9. Moreover, the “CGI-C, mean change in final value at 6-12 months compared to baseline” value with early-onset AD patients (setting [2]) is recorded as 4.5; in the data set with early-onset AD patients (setting [4]) it was 4.4; in the data set with early-onset AD patients (setting [5]), 4.3. Further, the entries for the “CGI-S, mean change in final value at 6-12 months compared to baseline” value with early-onset AD patients (setting [2]), in the data set with early-onset AD patients (setting [4]) and in the data set with early-onset AD patients (setting [5]) were 0.3, 0.0 and 0.2, respectively. Moreover, the “ADAS-Cog, mean change in final value at 6-12 months compared to baseline” value with early-onset AD patients (setting [3]) is on record as 4.7. In addition, the “MMSE, mean change in final value at 6-12 months compared to baseline” value with early-onset AD patients (setting [3]) is given as -2.1; in the data set on early-onset AD patients (the 5 studies of 6 months, Cognitive, oral), -0.7. Also, in data set [1], the toxicity result is recorded as “substantial non-toxicity”.
